Assay results as given in US20110257146A1, “Method of Treating Kcnq Related Disorders Using Organozinc Compounds” (The johns Hopkins University, priority 2006, published 2011).
Entries after “also recorded” stand apart in the source; their conditions may differ.

Legend:
Type in all cases: cell-based
KCNQ2(A306T) = target: T1, KCNQ2(A306T) (Rattus norvegicus, UniProt O88943, A306T); test: Whole-cell recording of KCNQ2(A306T) mutant in CHO cells
T1 construct: expressed in transfected cells; host or cells: CHO cells
Procedure: FIG. 9. KCNQ2 point mutants selectively lose ZnPy sensitivity. […] Each mutation site was indicated based on the predicted transmembrane regions. Dashed line indicates the potentiation level of wt KCNQ2 channel in the absence of ZnPy. […] C. Modeling of the S5-pore-S6 region of KCNQ2.
FIG. 11. ZnPy effects on BFNC mutant channels expressed in CHO cells. A. whole-cell currents of KCNQ2(R207W), KCNQ2(Y284C), and KCNQ2(A306T) were recorded in the absence (left) and presence (right) of 10 μM ZnPy, Vh was −80 mV, in 10 mV voltage steps from −70 mV to +50 mV. B. a histogram plotting potentiation effects on KCNQ2 wild type (wt) and BFNC mutants (R207W, Y284C and […]) by ZnPy (filled box) and retigabine (open box) (n≧4, * p<0.001, ** p<0.05).
Mutagenesis—Starting from KCNQ cDNAs, the KCNQ2 point mutants were constructed by recombinant PCR and verified by sequencing.
Electrophysiological Recording—Standard whole-cell recording was used. Pipettes were pulled from borosilicate glass capillaries (TW150-4, World Precision Instruments, Sarasota, Fla.). When filled with the intracellular solution, the pipettes have resistances of […]. During the recording, constant perfusion of extracellular solution was maintained using a BPS perfusion system (ALA, Westbury, N.Y.). Pipette solution contained (mM): KCl 145, MgCl2 1, EGTA 5, HEPES 10, MgATP 5 (pH 7.3); extracellular solution contained (mM): NaCl 140, KCl 3, CaCl2 2, MgCl2 1.5, HEPES 10, glucose 10 (pH 7.4). Current and voltage were recorded using an Axopatch-200A amplifier, filtered at 1 kHz and digitized using a DigiData 1322A with pClamp 9.2 software (Axon Instruments, Foster City, Calif.). Series resistance compensation was also used and set to 60-80%.

N-type calcium channel = target: T2, N-type calcium channel (Homo sapiens, UniProt Q00975); test: Channel activity in N-type calcium channel stable line
T2 construct: expressed in transfected cells; Diane Lipscombe and David Yue
T2 sequence (Q00975 whole entry): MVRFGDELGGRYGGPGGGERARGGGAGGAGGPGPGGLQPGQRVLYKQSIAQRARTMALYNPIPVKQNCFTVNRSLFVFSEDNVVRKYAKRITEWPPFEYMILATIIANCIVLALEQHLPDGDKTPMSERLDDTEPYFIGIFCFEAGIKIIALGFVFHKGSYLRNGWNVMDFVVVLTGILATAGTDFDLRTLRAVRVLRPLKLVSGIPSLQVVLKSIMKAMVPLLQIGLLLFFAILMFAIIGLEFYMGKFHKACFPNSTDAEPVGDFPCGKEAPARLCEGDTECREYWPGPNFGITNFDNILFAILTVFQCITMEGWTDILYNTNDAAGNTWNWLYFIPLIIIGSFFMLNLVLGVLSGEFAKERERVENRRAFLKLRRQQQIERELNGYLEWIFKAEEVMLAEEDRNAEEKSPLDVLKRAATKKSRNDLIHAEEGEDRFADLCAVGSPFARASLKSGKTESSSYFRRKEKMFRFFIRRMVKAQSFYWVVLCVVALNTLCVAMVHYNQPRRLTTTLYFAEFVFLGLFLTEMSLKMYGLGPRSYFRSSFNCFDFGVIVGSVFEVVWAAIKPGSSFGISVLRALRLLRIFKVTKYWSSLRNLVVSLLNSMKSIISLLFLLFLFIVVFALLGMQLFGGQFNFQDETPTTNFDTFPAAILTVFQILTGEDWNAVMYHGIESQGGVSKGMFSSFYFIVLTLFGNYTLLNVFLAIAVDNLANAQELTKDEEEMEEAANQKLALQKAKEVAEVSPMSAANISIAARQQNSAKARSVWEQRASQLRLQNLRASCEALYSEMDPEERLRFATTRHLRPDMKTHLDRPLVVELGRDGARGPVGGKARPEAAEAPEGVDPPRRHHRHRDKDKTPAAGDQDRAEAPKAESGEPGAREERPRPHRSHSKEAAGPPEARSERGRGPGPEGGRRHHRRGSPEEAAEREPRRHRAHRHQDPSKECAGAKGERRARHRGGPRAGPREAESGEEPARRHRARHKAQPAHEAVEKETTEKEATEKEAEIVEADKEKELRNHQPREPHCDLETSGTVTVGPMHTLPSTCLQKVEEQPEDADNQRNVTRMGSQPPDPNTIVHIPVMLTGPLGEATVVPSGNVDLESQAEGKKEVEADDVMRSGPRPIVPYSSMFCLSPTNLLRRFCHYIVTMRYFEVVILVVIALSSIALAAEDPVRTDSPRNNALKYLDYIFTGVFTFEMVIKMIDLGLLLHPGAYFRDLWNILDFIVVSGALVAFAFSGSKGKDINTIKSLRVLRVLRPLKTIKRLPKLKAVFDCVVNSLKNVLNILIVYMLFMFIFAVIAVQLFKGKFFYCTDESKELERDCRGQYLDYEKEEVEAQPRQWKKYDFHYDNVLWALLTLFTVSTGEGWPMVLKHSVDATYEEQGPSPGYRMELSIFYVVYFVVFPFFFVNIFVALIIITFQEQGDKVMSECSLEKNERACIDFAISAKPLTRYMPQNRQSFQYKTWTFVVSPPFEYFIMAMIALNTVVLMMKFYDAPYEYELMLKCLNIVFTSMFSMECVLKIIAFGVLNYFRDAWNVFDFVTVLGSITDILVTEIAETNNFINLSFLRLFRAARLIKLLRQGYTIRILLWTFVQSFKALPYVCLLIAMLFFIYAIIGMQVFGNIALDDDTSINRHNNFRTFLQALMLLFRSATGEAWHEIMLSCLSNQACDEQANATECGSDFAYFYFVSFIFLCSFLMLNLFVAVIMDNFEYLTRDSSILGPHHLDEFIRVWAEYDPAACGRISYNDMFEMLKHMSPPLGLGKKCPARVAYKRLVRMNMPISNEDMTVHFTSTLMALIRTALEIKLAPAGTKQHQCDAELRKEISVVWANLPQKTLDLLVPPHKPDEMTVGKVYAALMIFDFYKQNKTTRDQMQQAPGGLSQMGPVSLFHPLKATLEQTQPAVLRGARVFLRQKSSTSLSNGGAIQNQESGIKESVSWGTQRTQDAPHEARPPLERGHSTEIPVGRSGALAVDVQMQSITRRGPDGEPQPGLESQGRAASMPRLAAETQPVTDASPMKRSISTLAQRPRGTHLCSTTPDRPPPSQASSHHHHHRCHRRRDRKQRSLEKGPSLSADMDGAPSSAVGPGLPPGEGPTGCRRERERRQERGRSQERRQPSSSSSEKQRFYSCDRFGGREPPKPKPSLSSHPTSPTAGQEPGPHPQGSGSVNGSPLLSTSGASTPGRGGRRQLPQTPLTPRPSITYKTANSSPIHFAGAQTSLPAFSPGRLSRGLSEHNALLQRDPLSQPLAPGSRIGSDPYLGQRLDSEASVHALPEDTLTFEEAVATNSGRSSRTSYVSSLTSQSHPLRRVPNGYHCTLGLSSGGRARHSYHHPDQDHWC
T2 sequence (P54284 whole entry partner): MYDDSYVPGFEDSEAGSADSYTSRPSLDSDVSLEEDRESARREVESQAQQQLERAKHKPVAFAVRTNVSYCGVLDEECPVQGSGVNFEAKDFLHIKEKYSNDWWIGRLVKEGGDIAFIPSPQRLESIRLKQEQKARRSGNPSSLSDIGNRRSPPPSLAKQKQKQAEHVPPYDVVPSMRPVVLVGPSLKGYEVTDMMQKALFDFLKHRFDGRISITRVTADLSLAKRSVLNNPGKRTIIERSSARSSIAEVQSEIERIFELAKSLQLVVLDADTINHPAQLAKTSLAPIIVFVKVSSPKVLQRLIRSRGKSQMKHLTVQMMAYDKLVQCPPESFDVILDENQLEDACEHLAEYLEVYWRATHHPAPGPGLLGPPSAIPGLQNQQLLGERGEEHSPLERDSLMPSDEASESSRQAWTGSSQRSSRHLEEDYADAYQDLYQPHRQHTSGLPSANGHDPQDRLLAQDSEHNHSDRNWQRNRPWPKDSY
T2 sequence (P54289 25-946 partner limits assumed): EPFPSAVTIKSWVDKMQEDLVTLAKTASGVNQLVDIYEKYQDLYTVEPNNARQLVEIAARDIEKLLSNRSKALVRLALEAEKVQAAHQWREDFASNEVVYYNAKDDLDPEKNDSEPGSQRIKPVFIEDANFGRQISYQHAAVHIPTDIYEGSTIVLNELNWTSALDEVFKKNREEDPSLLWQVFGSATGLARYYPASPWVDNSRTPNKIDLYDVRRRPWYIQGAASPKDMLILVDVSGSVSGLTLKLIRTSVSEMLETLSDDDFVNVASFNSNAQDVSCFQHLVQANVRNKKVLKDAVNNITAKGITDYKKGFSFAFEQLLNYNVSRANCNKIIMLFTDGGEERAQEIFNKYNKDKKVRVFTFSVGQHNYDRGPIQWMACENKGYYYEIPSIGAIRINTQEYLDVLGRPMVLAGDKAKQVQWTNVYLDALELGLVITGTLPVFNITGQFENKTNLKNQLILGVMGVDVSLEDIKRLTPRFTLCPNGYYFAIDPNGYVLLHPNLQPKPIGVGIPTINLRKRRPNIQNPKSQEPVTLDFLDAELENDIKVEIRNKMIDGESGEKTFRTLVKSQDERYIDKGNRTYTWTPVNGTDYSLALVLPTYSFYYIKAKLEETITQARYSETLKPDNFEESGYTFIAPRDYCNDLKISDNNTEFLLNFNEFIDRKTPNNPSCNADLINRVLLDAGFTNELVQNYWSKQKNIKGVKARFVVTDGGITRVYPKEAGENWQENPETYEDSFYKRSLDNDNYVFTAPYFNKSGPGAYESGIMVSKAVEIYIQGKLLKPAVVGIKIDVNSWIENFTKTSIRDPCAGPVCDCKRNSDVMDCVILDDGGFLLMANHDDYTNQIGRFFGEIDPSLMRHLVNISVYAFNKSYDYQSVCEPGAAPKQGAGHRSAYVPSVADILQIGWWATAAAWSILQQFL
T2 sequence (P54289 947-1103 partner limits assumed): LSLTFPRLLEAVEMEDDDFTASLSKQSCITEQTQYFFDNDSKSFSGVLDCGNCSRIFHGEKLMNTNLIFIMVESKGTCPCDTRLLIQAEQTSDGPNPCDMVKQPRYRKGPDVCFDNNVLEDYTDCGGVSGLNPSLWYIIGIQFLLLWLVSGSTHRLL
Procedure: (§1) Cell culture and transient transfection—Chinese Hamster Ovary (CHO) cells were grown in 50/50 DMEM/F12 (Cellgro) with 10% FBS (Gibco), 100 U/ml penicillin (Cellgro), 100 μg/ml streptomycin (Cellgro) and 2 mM L-glutamine (Gibco). At 24 hours before transfection, cells were split and plated in 60 mm dishes and were transfected with Lipofectamine2000™ reagent (Invitrogen) according to the manufacturer's instruction. At 24 hours after transfection, cells were split and re-plated onto coverslips coated with poly-L-lysine (Sigma). Plasmid expressing CD4 cDNA as a marker was cotransfected with the channel cDNAs of hKCNQ1 (from Dr. Michael Sanguinetti), hKCNQ4 (from Dr. Vitya Vardanyan), rKCNQ2, rKCNQ3, and hKCNQ5 (from Drs. David McKinnon, Mark Shapiro, and Thomas Jentsch). Prior to recording, anti-CD4 Dynabeads (Dynal. Biotech. Inc.) were added into the medium to allow for identification of the transfected cells. Stable lines expressing Kv2.1, hERG, and Kv4.2 were generated by standard protocols using pcDNA3.1 and maintained at complete medium supplemented with 500 μg/ml G418. […]
(§2) Electrophysiological Recording—Standard whole-cell recording was used. […] Current and voltage were recorded using an Axopatch-200A amplifier, filtered at 1 kHz and digitized using a DigiData 1322A with pClamp 9.2 software (Axon Instruments, Foster City, Calif.). […]

KCNQ2 = KCNQ2 (Rattus norvegicus, UniProt O88943); test: Non-radioactive rubidium efflux assay (KCNQ2 screen, HEK 293); design: expressed in transfected cells
Procedure: To identify compounds with agonistic activities for M currents, stable cell lines for both KCNQ2 and KCNQ2/3 were generated. Under a pre-calibrated condition of medium-level rubidium efflux responses, more than 20,000 small molecule compounds were screened at a concentration of 10 μM. The selected condition allowed for identification of both inhibitors and potentiators. Selected compounds either increased or decreased the rubidium responses by more than 15% when compared to the control. A subset of the compounds were selected and validated for both potency and specificity.
KCNQ2 screen—HEK 293 cells stably expressing rat KCNQ2 were resuspended in DMEM/F12 medium and plated at a density of 4×10^4/well in poly-L-Lysine coated 96-well plates. Cells were then incubated at 37° C. with 5% CO2 overnight. 30 μl/well DMEM/F12 medium containing 30 mM RbCl was added to the cells the next day, followed by incubation for an additional 3 hours. Cell plating and reagent dispensing were done using a Multidrop 384 dispenser (Thermo Electron Corporation).
Compound addition and Rb^+ efflux assay were programmed and performed on a Cybi-Well™ system and Tekbench liquid handling system (Tekcel Inc., Hopkinton, Mass.), respectively. […] Rb^+ concentrations in both supernatant and cell lysates were measured by atomic absorption spectrometry using an ICR8000 instrument (Aurora Biomed, Vancouver, Canada).

KCNQ3 = target: T3, KCNQ3 (Rattus norvegicus, UniProt O88944); test: Whole-cell voltage clamp of CHO cells expressing KCNQ3; conditions: 10 μM ZnPy
T3 construct: expressed in transfected cells; host or cells: CHO cells
Procedure: as §1, with “cells.” for “cells. Stable lines expressing Kv2.1, hERG, and Kv4.2 were generated by standard protocols using pcDNA3.1 and maintained at complete medium supplemented with 500 μg/ml G418.”
as §2
Data and Statistical Analysis—Patch-clamp data were preprocessed using Clampfit 9.2 (Axon Instruments, Foster City, Calif.) and then analyzed in Origin 7 (OriginLab, Northampton, Mass.). […]

[1] = target: T4, Kv4.2 A-type potassium channel (Homo sapiens, UniProt Q9NZV8); test: Channel activity in Kv4.2 stable line
T4 construct: expressed in transfected cells
T4 sequence (Q9NZV8 whole entry): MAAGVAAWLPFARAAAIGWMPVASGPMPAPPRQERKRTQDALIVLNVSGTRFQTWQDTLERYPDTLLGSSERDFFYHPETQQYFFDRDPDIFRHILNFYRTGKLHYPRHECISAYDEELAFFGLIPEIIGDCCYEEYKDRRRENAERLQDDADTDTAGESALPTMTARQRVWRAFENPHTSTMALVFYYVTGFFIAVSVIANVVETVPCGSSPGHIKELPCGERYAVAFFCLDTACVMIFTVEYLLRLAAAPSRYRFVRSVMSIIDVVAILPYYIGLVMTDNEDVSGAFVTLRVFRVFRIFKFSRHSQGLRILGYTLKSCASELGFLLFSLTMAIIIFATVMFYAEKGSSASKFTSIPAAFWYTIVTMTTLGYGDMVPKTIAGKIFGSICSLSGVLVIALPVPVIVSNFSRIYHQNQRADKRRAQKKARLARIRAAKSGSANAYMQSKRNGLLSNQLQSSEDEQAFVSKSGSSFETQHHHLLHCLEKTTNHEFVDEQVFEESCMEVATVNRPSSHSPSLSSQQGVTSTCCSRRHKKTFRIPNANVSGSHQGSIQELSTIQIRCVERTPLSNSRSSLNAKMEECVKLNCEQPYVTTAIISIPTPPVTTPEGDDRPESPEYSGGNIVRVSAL
Procedure: as §1, §2

S=c1ccccn1[O][Zn][O]n1ccccc1=S [ZnPy, Zinc Pyrithione]
effectiveness of current increase (KCNQ2(A306T); 10 μM ZnPy): less effective
hyperpolarizing shift of V1/2 (KCNQ2(A306T); ZnPy): 24.1±3.1 mV
potentiation in Gmax (KCNQ2(A306T); ZnPy): little potentiation in Gmax
potentiation of channel activity (N-type calcium channel): did not potentiate
elevation of KCNQ activity by rubidium efflux (KCNQ2): unusual potency in elevating KCNQ activities
change of V1/2 (KCNQ3): no change on V1/2
current potentiation (KCNQ3; extracellular): did not show any current potentiation; also recorded: has no effect on KCNQ3
potentiation of channel activity [1]: did not potentiate
